The text below walks through data of US20240349723A1 (priority 2023, published 2024).

Entries after “also recorded” stand apart in the source; their conditions may differ. Where two headings read alike, the source gives them in different places. Where a SMILES comes first, the peptide text is derived from it. Where no end group is shown, it is not given here.

For test [1], the system named is Liberibacter crescens strain BT-1.
The next test concerns CLas. The test is classed as in vivo, Candidatus Liberibacter asiaticus.
The subject of the next test is Diaphorina citri. The test is classed as in vivo. The following applies: for Nymph mortality of D. citri: dead psyllids counted daily, 21 days, FIG. 9; for live adult psyllids collected from the ten leaves: after 21 day assay, 10 nymphs per excised leaf, peptides 1 mg/mL, PMB 0.5 mg/mL.
In test [2] the test system is 'Candidatus Liberibacter asiaticus' (CLas). Type of test: in vivo. The following applies: excised CLas-infected citrus leaves, 1 mg/ml, seven-day incubation, FIG. 5.
[3] abbreviates: adults developed on treated CLas-infected leaves, 21 days, FIG. 7.

Take `CC[C@H](C)[C@H](NC(=O)[C@H](CC(N)=O)NC(=O)[C@@H](NC(=O)CNC(=O)[C@H](CCCNC(=N)N)NC(=O)[C@H](Cc1ccccc1)NC(=O)[C@H](CCC(N)=O)NC(=O)[C@@H]1CCCN1C(=O)[C@H](CS)NC(=O)[C@H](CC(=O)O)NC(=O)[C@H](CCCCN)NC(=O)[C@H](CC(=O)O)NC(=O)[C@H](CCCNC(=N)N)NC(=O)[C@H](CCCCN)NC(=O)[C@H](CS)NC(=O)CNC(=O)[C@@H](N)CCCNC(=N)N)C(C)C)C(=O)N[C@@H](CCCNC(=N)N)C(=O)N[C@@H](CS)C(=O)N[C@@H](CCCNC(=N)N)C(=O)O` [compound 9] (H-RGCKRDKDCPQFRGVNIRCR-OH; N-terminus and C-terminus assumed): in test [1] (0.1 mg/ml), the “Percent growth rate inhibition L. crescens” value is on record as 65.4%.

Turning to LRFRSVFHIFASVLAVAKKH [compound 6], the “Percent growth rate inhibition L. crescens” value in test [1] (L. crescens strain BT-1, BM7 medium, final peptide 1 or 0.1 mg/ml, O.D. 600 nm over seven days) is listed as 66.6%.

Consider “LYCNVGSHMECVKHQCKCIK (listed as Medicago truncatula) [SEQ ID NO: 11]”, for which the “number of infective Diaphorina citri adults that develop on treated leaves” value (shortened to “number”) in the test with CLas (leaf delivery, FIG. 7) is on record as “reduces the number of infective Diaphorina citri adults”. In addition, the “Nymph mortality of D. citri” value in the test on Diaphorina citri is given as “Nymph mortality observed”.

As to “QNLCVGSPLPLQCLKFICRC (listed as Medicago truncatula) [SEQ ID NO: 14]”, in the test on CLas (leaf delivery, FIG. 7), the “number” value is given as “reduces the number of infective Diaphorina citri adults”. The “Nymph mortality of D. citri” value with Diaphorina citri was “Nymph mortality observed”.

Consider “RGCKRDKDCPQFRGVNIRCR (listed as Medicago truncatula) [SEQ ID NO: 9]”, for which, in the test on CLas (in vivo), the “development of psyllid with more than 100 CLas cells per insect (high titer)” value (from here on “development of psyllid … per insect (high titer)”) is on record as “completely blocking the development of psyllid with more than 100 CLas cells; also recorded: No highly infected adults develop” and the “number” value is listed as “reduces the number of infective Diaphorina citri adults”. For the same molecule, the “live adult psyllids collected from the ten leaves” value (“live adult psyllids collected” for short) with Diaphorina citri came to 80.

As for “VKCVLPRIARCIKYRCQCRN (listed as Medicago truncatula) [SEQ ID NO: 10]”, the “development of psyllid … per insect (high titer)” value with CLas (setting [3]) is given as “completely blocking the development of psyllid with more than 100 CLas cells; also recorded: No highly infected adults develop”. For the same molecule, the “number” value with CLas (leaf delivery, FIG. 7) is listed as “reduces the number of infective Diaphorina citri adults”. The “live adult psyllids collected” value in the test with Diaphorina citri is on record as 74.

As for “YSSCATKEECKCPDNKRPAC (listed as Medicago truncatula) [SEQ ID NO: 8]”, in the test on CLas (count out of adults collected, 21 days, FIG. 7), the “adult insects with more than 100 CLas cell equivalents per insect” value is 2/84. For the same molecule, the “number” value in the test on CLas (leaf delivery, FIG. 7) is given as “reduces the number of infective Diaphorina citri adults”. Besides, the “live adult psyllids collected” value in the test with Diaphorina citri is on record as 84.

With “polymyxin B sulfate [PMB, reference compound]”, the “CLas 16S transcript-to-gene ratio (CLas rRNA : CLas rDNA), CLas activity” value in test [2] is recorded as “greater declines in detectable CLas activity”. Besides, the “development of psyllid … per insect (high titer)” value in the test with CLas (setting [3]) is given as “prevented the development of high titer psyllid”. In addition, the “CLas titer in the excised leaves” value in the test on CLas (excised leaf acquisition assay, FIG. 6A, differences not statistically significant) is listed as “reduced CLas titer in the excised leaves”. In addition, the “live adult psyllids collected” value with Diaphorina citri stood at 87. Besides, the “performance in the bacterial growth assays” value in test [1] (positive growth inhibition control, 0.5 mg/ml) is recorded as “excellent performance as an antimicrobial peptide”.
